Data from the kinase profiling compilation of Christmann-Franck et al. (2016).

Columns and labels:
Experiment in all cases: radiometric filter-binding kinase assay, Kinase HotSpot
Conditions in all cases: compound 0.5 µM; ATP 10 µM
PRKD3 (human) = PRKD3 (human) (UniProt O94806)
ERBB4 (human) = ERBB4 (human) (UniProt Q15303)
AURKB (human) = AURKB (human) (UniProt Q96GD4)
MKNK2 (human) = MKNK2 (human) (UniProt Q9HBH9)
ACVR1B (human) = ACVR1B (human) (UniProt P36896)
CHEK1 (human) = CHEK1 (human) (UniProt O14757)
Sequence of CHEK1 (human) (O14757 whole entry, looked up): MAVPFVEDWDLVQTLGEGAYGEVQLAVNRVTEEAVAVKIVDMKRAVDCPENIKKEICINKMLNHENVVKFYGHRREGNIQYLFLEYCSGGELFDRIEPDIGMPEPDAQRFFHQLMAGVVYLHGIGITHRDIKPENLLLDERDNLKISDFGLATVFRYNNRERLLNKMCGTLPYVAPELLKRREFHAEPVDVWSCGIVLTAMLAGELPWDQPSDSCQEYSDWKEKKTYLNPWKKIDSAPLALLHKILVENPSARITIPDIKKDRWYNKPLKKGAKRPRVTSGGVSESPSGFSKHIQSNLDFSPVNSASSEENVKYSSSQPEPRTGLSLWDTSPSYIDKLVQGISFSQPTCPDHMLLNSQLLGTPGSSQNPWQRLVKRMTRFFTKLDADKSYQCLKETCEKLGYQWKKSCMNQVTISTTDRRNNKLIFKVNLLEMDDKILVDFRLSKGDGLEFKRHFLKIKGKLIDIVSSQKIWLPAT

STK39 (human) = STK39 (human) (UniProt Q9UEW8)
MST4 (human) = MST4 (human) (UniProt Q9P289)
ROS1 (human) = ROS1 (human) (UniProt P08922)
Sequence of ROS1 (human) (P08922 whole entry, looked up): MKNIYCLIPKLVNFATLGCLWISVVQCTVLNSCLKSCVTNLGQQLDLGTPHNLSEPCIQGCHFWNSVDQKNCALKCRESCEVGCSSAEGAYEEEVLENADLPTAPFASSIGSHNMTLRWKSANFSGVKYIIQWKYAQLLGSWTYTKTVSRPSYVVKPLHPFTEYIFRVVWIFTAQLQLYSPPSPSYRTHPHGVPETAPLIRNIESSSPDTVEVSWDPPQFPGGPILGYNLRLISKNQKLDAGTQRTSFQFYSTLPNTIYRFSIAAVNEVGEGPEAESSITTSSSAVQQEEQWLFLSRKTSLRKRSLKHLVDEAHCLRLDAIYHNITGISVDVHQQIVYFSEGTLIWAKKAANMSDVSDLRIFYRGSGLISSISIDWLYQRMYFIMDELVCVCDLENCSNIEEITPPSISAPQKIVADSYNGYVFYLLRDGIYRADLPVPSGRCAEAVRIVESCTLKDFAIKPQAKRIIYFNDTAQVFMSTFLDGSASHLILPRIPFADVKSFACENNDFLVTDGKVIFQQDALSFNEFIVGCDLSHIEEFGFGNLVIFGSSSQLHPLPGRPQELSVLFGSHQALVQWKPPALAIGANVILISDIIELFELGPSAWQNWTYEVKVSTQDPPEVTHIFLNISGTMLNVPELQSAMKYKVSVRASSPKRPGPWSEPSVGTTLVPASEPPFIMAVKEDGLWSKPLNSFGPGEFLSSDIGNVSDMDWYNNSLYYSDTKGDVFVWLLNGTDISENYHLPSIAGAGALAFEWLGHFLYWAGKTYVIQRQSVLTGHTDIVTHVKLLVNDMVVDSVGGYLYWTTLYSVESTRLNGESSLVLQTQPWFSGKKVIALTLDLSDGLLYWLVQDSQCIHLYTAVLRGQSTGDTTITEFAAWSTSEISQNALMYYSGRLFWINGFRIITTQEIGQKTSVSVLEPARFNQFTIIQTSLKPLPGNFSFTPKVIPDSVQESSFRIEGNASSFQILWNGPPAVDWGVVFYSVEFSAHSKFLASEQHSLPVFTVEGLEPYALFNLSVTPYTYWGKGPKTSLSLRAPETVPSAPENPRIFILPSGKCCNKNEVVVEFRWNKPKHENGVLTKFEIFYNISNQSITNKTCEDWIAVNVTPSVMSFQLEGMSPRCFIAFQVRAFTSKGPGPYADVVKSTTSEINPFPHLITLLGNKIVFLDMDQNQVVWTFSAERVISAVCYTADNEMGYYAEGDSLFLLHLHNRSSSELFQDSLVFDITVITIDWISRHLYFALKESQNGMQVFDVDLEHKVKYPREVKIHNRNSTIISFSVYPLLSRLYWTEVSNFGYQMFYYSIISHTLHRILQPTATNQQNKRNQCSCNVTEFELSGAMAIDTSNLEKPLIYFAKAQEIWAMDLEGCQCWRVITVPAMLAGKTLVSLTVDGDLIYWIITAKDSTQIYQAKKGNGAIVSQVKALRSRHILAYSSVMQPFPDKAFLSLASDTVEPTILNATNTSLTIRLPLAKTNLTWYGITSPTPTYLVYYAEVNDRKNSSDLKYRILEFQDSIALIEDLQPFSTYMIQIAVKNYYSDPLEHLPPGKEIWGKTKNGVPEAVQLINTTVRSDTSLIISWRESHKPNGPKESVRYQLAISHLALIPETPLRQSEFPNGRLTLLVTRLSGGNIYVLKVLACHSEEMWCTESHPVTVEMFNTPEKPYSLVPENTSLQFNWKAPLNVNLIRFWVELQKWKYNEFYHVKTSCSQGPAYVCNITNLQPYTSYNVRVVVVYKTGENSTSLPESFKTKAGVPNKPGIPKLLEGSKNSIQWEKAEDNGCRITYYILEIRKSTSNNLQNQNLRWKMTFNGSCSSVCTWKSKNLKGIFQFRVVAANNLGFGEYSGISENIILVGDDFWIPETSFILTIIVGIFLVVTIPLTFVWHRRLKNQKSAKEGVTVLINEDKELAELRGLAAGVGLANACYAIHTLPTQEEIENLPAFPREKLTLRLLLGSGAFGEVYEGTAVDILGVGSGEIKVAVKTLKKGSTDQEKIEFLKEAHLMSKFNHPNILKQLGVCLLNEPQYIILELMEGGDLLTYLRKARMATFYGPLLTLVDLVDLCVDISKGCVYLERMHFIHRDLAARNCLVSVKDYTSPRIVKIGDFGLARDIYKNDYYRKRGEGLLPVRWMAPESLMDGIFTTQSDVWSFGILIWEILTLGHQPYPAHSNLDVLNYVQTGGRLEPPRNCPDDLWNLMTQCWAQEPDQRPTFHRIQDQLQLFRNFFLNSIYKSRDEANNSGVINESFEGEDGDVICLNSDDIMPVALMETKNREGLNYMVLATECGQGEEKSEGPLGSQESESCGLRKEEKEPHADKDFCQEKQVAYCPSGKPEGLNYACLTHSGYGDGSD

EPHA3 (human) = EPHA3 (human) (UniProt P29320)
PRKX (human) = PRKX (human) (UniProt P51817)
EPHB3 (human) = EPHB3 (human) (UniProt P54753)
PRKCG (human) = PRKCG (human) (UniProt P05129)
MYLK (human) = MYLK (human) (UniProt Q15746)
PAK7 (human) = PAK7 (human) (UniProt Q9P286)
CAMK1G (human) = CAMK1G (human) (UniProt Q96NX5)
MARK1 (human) = MARK1 (human) (UniProt Q9P0L2)
NEK1 (human) = NEK1 (human) (UniProt Q96PY6)
DAPK3 (human) = DAPK3 (human) (UniProt O43293)
PRKCA (human) = PRKCA (human) (UniProt P17252)
SGK3 (human) = SGK3 (human) (UniProt Q96BR1)
MLTK (human) = MLTK (human) (UniProt Q9NYL2)
YES1 (human) = YES1 (human) (UniProt P07947)
WEE1 (human) = WEE1 (human) (UniProt P30291)
SIK2 (human) = SIK2 (human) (UniProt Q9H0K1)
FGFR2 (human) = FGFR2 (human) (UniProt P21802)
STK4 (human) = STK4 (human) (UniProt Q13043)
TAOK1 (human) = TAOK1 (human) (UniProt Q7L7X3)
PIM2 (human) = PIM2 (human) (UniProt Q9P1W9)
CDK4 CCND3 (human) = CDK4 CCND3 (human) (UniProt P30281+P11802)
MAPK12 (human) = MAPK12 (human) (UniProt P53778)
NLK (human) = NLK (human) (UniProt Q9UBE8)
CLK4 (human) = CLK4 (human) (UniProt Q9HAZ1)
IRAK4 (human) = IRAK4 (human) (UniProt Q9NWZ3)
CAMK2D (human) = CAMK2D (human) (UniProt Q13557)
CDK9 CCNT1 (human) = CDK9 CCNT1 (human) (UniProt P50750+O60563)
NEK2 (human) = NEK2 (human) (UniProt P51955)
PLK3 (human) = PLK3 (human) (UniProt Q9H4B4)
MST1R (human) = MST1R (human) (UniProt Q04912)
EPHB4 (human) = EPHB4 (human) (UniProt P54760)
Sequence of EPHB4 (human) (P54760 whole entry, looked up): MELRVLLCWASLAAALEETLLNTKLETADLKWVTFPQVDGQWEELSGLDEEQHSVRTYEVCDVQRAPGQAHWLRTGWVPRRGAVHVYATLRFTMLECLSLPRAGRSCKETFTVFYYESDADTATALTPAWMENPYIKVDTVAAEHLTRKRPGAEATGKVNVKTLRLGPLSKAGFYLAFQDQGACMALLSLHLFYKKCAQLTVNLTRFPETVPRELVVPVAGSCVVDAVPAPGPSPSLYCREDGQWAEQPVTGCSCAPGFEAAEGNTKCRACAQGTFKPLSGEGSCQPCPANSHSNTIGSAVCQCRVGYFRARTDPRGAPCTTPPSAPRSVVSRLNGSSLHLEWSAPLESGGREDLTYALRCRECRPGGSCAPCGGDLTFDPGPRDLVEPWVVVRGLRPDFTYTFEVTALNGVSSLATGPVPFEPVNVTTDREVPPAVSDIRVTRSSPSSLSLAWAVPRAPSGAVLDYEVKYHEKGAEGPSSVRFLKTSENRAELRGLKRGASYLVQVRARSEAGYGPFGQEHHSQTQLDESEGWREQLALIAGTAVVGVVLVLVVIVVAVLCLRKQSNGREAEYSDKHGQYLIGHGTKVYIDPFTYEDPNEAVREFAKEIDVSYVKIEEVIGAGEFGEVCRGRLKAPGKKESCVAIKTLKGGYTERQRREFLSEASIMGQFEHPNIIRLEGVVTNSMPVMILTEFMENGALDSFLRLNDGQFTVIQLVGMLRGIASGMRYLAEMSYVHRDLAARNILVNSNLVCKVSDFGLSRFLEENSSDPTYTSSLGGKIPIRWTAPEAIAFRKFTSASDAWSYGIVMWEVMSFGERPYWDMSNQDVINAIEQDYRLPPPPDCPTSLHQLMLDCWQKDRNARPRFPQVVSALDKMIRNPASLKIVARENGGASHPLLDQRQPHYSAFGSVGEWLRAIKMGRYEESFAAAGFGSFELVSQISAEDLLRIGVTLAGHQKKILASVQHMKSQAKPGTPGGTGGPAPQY

HCK (human) = HCK (human) (UniProt P08631)
TGFBR1 (human) = TGFBR1 (human) (UniProt P36897)
Sequence of TGFBR1 (human) (P36897 whole entry, looked up): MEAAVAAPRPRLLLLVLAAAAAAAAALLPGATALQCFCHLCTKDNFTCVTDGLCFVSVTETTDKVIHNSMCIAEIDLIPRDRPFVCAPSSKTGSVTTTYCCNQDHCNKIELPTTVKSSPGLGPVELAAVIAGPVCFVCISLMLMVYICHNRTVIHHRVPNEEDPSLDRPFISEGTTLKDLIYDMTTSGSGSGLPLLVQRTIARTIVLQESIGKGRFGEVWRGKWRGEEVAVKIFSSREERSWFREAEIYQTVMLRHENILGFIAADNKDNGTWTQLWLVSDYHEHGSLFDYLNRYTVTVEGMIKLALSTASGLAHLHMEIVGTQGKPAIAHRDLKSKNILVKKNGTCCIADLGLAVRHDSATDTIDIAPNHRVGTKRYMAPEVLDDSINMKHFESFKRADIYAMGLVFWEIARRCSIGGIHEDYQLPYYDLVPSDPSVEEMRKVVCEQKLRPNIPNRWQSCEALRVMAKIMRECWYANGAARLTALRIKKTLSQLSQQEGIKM

Sequence of ACVR1B (human) (P36896 whole entry, looked up): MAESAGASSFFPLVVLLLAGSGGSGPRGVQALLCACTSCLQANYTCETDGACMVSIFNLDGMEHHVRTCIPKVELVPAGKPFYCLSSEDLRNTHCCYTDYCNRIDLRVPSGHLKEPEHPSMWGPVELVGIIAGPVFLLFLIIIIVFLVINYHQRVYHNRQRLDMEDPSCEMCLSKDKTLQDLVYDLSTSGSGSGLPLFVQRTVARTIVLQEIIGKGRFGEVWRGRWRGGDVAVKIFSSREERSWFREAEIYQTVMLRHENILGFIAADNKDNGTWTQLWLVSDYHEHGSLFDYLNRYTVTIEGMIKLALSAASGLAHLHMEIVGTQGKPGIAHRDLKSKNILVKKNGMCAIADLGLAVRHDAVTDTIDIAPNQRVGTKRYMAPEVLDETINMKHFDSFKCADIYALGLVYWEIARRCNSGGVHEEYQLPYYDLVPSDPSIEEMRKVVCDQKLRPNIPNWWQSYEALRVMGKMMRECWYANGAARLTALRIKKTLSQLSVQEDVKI

CC(C)c1nn(-c2c(Cl)cccc2Cl)c2nc(Cc3ccc(OCCO)cc3)nc(O)c12
residual activity (PRKD3 (human)): 92.3% | residual activity (ERBB4 (human)): 101% | residual activity (AURKB (human)): 104% | residual activity (MKNK2 (human)): 88.9% | residual activity (ACVR1B (human)): 109% | residual activity (CHEK1 (human)): 96.2% | residual activity (STK39 (human)): 99.9% | residual activity (MST4 (human)): 46.8% | residual activity (ROS1 (human)): 105% | residual activity (EPHA3 (human)): 86.2% | residual activity (PRKX (human)): 96.3% | residual activity (EPHB3 (human)): 92.6% | residual activity (PRKCG (human)): 81.1% | residual activity (MYLK (human)): 98.3% | residual activity (PAK7 (human)): 76.4% | residual activity (CAMK1G (human)): 100% | residual activity (MARK1 (human)): 93.3% | residual activity (NEK1 (human)): 90.9% | residual activity (DAPK3 (human)): 104% | residual activity (PRKCA (human)): 89.9% | residual activity (SGK3 (human)): 92.6% | residual activity (MLTK (human)): 94.4% | residual activity (YES1 (human)): 86.3% | residual activity (WEE1 (human)): 109% | residual activity (SIK2 (human)): 116% | residual activity (FGFR2 (human)): 97.5% | residual activity (STK4 (human)): 96.7% | residual activity (TAOK1 (human)): 72.1% | residual activity (PIM2 (human)): 104% | residual activity (CDK4 CCND3 (human)): 45.6% | residual activity (MAPK12 (human)): 103% | residual activity (NLK (human)): 97.6% | residual activity (CLK4 (human)): 81.2% | residual activity (IRAK4 (human)): 112% | residual activity (CAMK2D (human)): 85.7% | residual activity (CDK9 CCNT1 (human)): 22.7% | residual activity (NEK2 (human)): 97.7% | residual activity (PLK3 (human)): 99.1% | residual activity (MST1R (human)): 97.5% | residual activity (EPHB4 (human)): 90.7% | residual activity (HCK (human)): 94.7% | residual activity (TGFBR1 (human)): 98%

O=C1Nc2ccccc2/C1=C1/Nc2ccccc2/C1=N\OCCC(O)CO (stereo not drawn)
residual activity (PRKD3 (human)): 68.1% | residual activity (ERBB4 (human)): 97.5% | residual activity (AURKB (human)): 27.4% | residual activity (MKNK2 (human)): 72.4% | residual activity (ACVR1B (human)): 110% | residual activity (CHEK1 (human)): 67% | residual activity (STK39 (human)): 79.3% | residual activity (MST4 (human)): 73.1% | residual activity (ROS1 (human)): 27% | residual activity (EPHA3 (human)): 69% | residual activity (PRKX (human)): 84.2% | residual activity (PRKCG (human)): 92% | residual activity (MYLK (human)): 32.3% | residual activity (PAK7 (human)): 81% | residual activity (CAMK1G (human)): 102% | residual activity (MARK1 (human)): 60.5% | residual activity (NEK1 (human)): 92.9% | residual activity (DAPK3 (human)): 66.6% | residual activity (PRKCA (human)): 101% | residual activity (SGK3 (human)): 100% | residual activity (MLTK (human)): 76.4% | residual activity (YES1 (human)): 13.4% | residual activity (WEE1 (human)): 82% | residual activity (SIK2 (human)): 75.1% | residual activity (FGFR2 (human)): 76% | residual activity (STK4 (human)): 8.29% | residual activity (TAOK1 (human)): 98.2% | residual activity (PIM2 (human)): 99.5% | residual activity (CDK4 CCND3 (human)): 66.1% | residual activity (MAPK12 (human)): 89.9% | residual activity (NLK (human)): 101% | residual activity (CLK4 (human)): 6.19% | residual activity (IRAK4 (human)): 60.3% | residual activity (CAMK2D (human)): 29.1% | residual activity (CDK9 CCNT1 (human)): 52.5% | residual activity (NEK2 (human)): 114% | residual activity (PLK3 (human)): 102% | residual activity (MST1R (human)): 101% | residual activity (EPHB4 (human)): 72.2% | residual activity (HCK (human)): 23% | residual activity (TGFBR1 (human)): 102%
